Assay results reported in paper PMC10997755, “Discovery of a small-molecule inhibitor that traps Polθ on DNA and synergizes with PARP inhibitors” (Nature Communications, 2024).
Several values for one entry are separate records, joined by “and”; a condition that tells them apart may be missing. Equal values may be shown once.

How the values were obtained:
Test in all cases: Clonogenic assay
Type in all cases: cell-based
[1] = test system: CAPAN-1 cells; conditions: for percent suvival: Capan-1 cells
Summary of the method: (§1)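 Cells seeded at low density (300–1000 per well, by plate size and genotype), medium changed every 2 days, colonies grown 10–12 days. Fixed in water:ethanol:acetic acid, stained with 0.5% crystal violet, then counted; IC50 from ≥3 independent experiments, mean ± SEM.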

[2] = test system: PE01 ovarian cancer cells; conditions: clonogenic survival
Summary of the method: as §1

[3] = test system: HCT116 BRCA2 -/- cells; conditions: for Average number of colonies counted / Normalized colonies (% normalized to control): per experiment
Summary of the method: as §1

[4] = test system: MDA-MB-231 cells; conditions: for percent suvival: Fig. 2f
Summary of the method: as §1

## CN(C(=O)Oc1c(N2CCN(CCO)C2=O)cc(C(F)(F)F)cc1C(F)(F)F)c1ccc(F)cc1 [RTx-161]
[1]; RTX-161 2 micro M, ola 0.00 micro M, experiment block 3 (c20-c29)
  percent suvival: 91.4122%
[1]; RTX-161 6 micro M + ola 0.041 micro M, experiment block 1 (c0-c9)
  percent suvival: 15.5586%
[1]; RTX-161 6 micro M + ola 0.041 micro M, experiment block 2 (c10-c19)
  percent suvival: 45.4723%
[1]; RTX-161 6 micro M + ola 0.041 micro M, experiment block 3 (c20-c29)
  percent suvival: 68.5869%
[1]; RTX-161 6 micro M + ola 0.123 micro M, experiment block 1 (c0-c9)
  percent suvival: 6.432%
[1]; RTX-161 6 micro M + ola 0.123 micro M, experiment block 2 (c10-c19)
  percent suvival: 32.777%
[1]; RTX-161 6 micro M + ola 0.123 micro M, experiment block 3 (c20-c29)
  percent suvival: 59.0951%
[1]; RTX-161 6 micro M + ola 0.37 micro M, experiment block 1 (c0-c9)
  percent suvival: 6.745%
[1]; RTX-161 6 micro M + ola 0.37 micro M, experiment block 2 (c10-c19)
  percent suvival: 21.1222%
[1]; RTX-161 6 micro M + ola 0.37 micro M, experiment block 3 (c20-c29)
  percent suvival: 41.2416%
[1]; RTX-161 6 micro M + ola 1.11 micro M, experiment block 1 (c0-c9)
  percent suvival: 6.364%
[1]; RTX-161 6 micro M + ola 1.11 micro M, experiment block 2 (c10-c19)
  percent suvival: 17.1679%
[1]; RTX-161 6 micro M + ola 1.11 micro M, experiment block 3 (c20-c29)
  percent suvival: 14.1224%
[1]; RTX-161 6 micro M, ola 0.00 micro M, experiment block 1 (c0-c9)
  percent suvival: 109.215%
[1]; RTX-161 6 micro M, ola 0.00 micro M, experiment block 2 (c10-c19)
  percent suvival: 55.8784%
[1]; RTX-161 6 micro M, ola 0.00 micro M, experiment block 3 (c20-c29)
  percent suvival: 75.1407%
[1]; RTX-161 18 micro M + ola 0.041 micro M, experiment block 1 (c0-c9)
  percent suvival: 10.9588%
[1]; RTX-161 18 micro M + ola 0.123 micro M, experiment block 1 (c0-c9)
  percent suvival: 6.3155%
[1]; RTX-161 18 micro M + ola 0.37 micro M, experiment block 1 (c0-c9)
  percent suvival: 7.064%
[1]; RTX-161 18 micro M + ola 1.11 micro M, experiment block 1 (c0-c9)
  percent suvival: 6.846%
[1]; RTX-161 18 micro M, ola 0.00 micro M, experiment block 1 (c0-c9)
  percent suvival: 83.7737%
[1]; clonogenic survival
  combination with Olaparib: significantly reduced cellular resistance to Olaparib
[2]
  combination with Olaparib: strongly potentiated the effects of Olaparib
  single agent activity: little to no activity as a single agent
[3]; Homo sapiens, HCT-116, HCT116 cells, label beside BRCA2-null curve, read-out: IC50 clonogenic survival
  IC50: ~1000 nM
[3]; RTX-161 0.5 micro M
  Normalized colonies, pooled Average of 3 experiments: 92.0788%
  Average number of colonies counted: 70 and 37.3333 and 38
  Normalized colonies (% normalized to control): 74.7331% and 113.131% and 88.3721%
[3]; RTX-161 1 micro M
  Normalized colonies, pooled Average of 3 experiments: 62.4064%
  Average number of colonies counted: 46.6667 and 26.6667 and 24.3333
  Normalized colonies (% normalized to control): 49.8221% and 80.8081% and 56.5891%
[3]; RTX-161 2 micro M
  Normalized colonies, pooled Average of 3 experiments: 32.1189%
  Normalized colonies (% normalized to control): 33.0961% and 35.3535% and 27.907%
[3]; RTX-161 4 micro M
  Normalized colonies, pooled Average of 3 experiments: 16.8132%
[3]; RTX-161 8 micro M
  Normalized colonies, pooled Average of 3 experiments: 8.53%
[3]; clonogenic survival
  combination with Rucaparib: strong synergistic activity
[3]; clonogenic survival, Combenefit synergy
  combination with Olaparib: strong synergistic activity
[3]; colony survival, versus BRCA2-WT
  selective killing of BRCA2-null HCT116 cells: selective killing
[4]; Rtx-161 5 microM + Talazoparib 12.5 nano M, experiment block 1 (c0-c7)
  percent suvival: 68.1979%
[4]; Rtx-161 5 microM + Talazoparib 12.5 nano M, experiment block 2 (c8-c15)
  percent suvival: 63.9241%
[4]; Rtx-161 5 microM + Talazoparib 12.5 nano M, experiment block 3 (c16-c23)
  percent suvival: 59.2391%
[4]; Rtx-161 5 microM + Talazoparib 25 nano M, experiment block 1 (c0-c7)
  percent suvival: 45.2297%
[4]; Rtx-161 5 microM + Talazoparib 25 nano M, experiment block 2 (c8-c15)
  percent suvival: 50%
[4]; Rtx-161 5 microM + Talazoparib 25 nano M, experiment block 3 (c16-c23)
  percent suvival: 34.2391%
[4]; Rtx-161 5 microM + Talazoparib 50 nano M, experiment block 1 (c0-c7)
  percent suvival: 12.7208%
[4]; Rtx-161 5 microM + Talazoparib 50 nano M, experiment block 2 (c8-c15)
  percent suvival: 18.9873%
[4]; Rtx-161 5 microM + Talazoparib 50 nano M, experiment block 3 (c16-c23)
  percent suvival: 15.7609%
[4]; Rtx-161 5 microM, Talazoparib 0 nano M, experiment block 1 (c0-c7)
  percent suvival: 93.6396%
[4]; Rtx-161 5 microM, Talazoparib 0 nano M, experiment block 2 (c8-c15)
  percent suvival: 98.7342%
[4]; Rtx-161 5 microM, Talazoparib 0 nano M, experiment block 3 (c16-c23)
  percent suvival: 88.587%
[4]; clonogenic survival, HR-proficient cells
  combination with Talazoparib: modestly potentiated the effects of Talazoparib
